PMC9597602, “Metal Complexes as Antifungals? From a Crowd-Sourced Compound Library to the First In Vivo Experiments” (JACS Au, 2022)
Read-outs that look alike come from different tables or passages of the source.

Tests used:
[1] = system: Acinetobacter baumannii ATCC 19606 type strain; test: CO-ADD antibacterial MIC assay; assay type: cell-based; settings: initial CO-ADD dose-response screening; ≥80% growth inhibition
Procedure, shortened: (§1)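 Strains grown overnight in cation-adjusted Mueller Hinton broth at 37 °C, diluted 40-fold and regrown 1.5–3 h to mid-log, then seeded at 5 × 10^5 CFU/mL with compound. After 18 h static incubation at 37 °C, OD600 was read; MIC is the lowest concentration giving ≥80% growth inhibition.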

[2] = system: Escherichia coli ATCC 25922 FDA control strain; test: CO-ADD antibacterial MIC assay; assay type: cell-based; settings: initial CO-ADD dose-response screening; ≥80% growth inhibition
Procedure, shortened: as §1

[3] = system: Pseudomonas aeruginosa ATCC 27853 QC control strain; test: CO-ADD antibacterial MIC assay; assay type: cell-based; settings: initial CO-ADD dose-response screening; ≥80% growth inhibition
Procedure, shortened: as §1

[4] = system: methicillin-resistant Staphylococcus aureus ATCC 43300; test: CO-ADD antibacterial MIC assay; assay type: cell-based; settings: initial CO-ADD dose-response screening; ≥80% growth inhibition
Procedure, shortened: as §1

[5] = system: Candida albicans ATCC 90028 NCCLS11; test: Antifungal MIC assay; assay type: cell-based; settings: for MIC Ca: initial CO-ADD dose-response screening, ≥80% growth inhibition
Procedure, shortened: (§2)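 MIC is the lowest concentration at which growth fell by at least 80% (optically clear to slightly hazy, CLSI M27 score 0–1). Cells in YNB at a final 2.5 × 10^3 CFU/mL were incubated with compound for 36 h at 35 °C, unshaken.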

[6] = system: Cryptococcus neoformans H99 ATCC 208821 type strain; test: Antifungal MIC assay; assay type: cell-based; settings: for MIC Cn: initial CO-ADD dose-response screening, ≥80% growth inhibition
Procedure, shortened: as §2

[7] = system: HEK-293 human embryonic kidney cells ATCC CRL-1573
Protocol: The cells were incubated together with the compounds for 20 h at 37 °C in 5% CO2. […] Tamoxifen (Sigma T5648) was used as internal control on each plate.

human red blood cells = assay type: cell-based
Procedure, shortened: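 Washed human erythrocytes at 0.5 × 10^8 cells/mL incubated with compound, then centrifuged. Haemolysis read as supernatant OD405, normalised to untreated cells (0%) and 1% Triton X-100 (100%), with melittin as internal plate control.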

[8] = system: Candida auris CBS10913 JCM 15448; test: Antifungal MIC assay, extended panel; assay type: cell-based; settings: extended panel
Protocol: (§3) For the fungal assays, both fungi (yeast) strains were cultured for 3 days on Yeast Extract-Peptone Dextrose (YPD; Becton Dickinson 242720) agar at 30 °C. A yeast suspension of 1 × 10^6 to 5 × 10^6 CFU/mL (as determined by OD530) was prepared from five colonies from the agar plates, subsequently diluted with Yeast Nitrogen Base media (YNB; Becton Dickinson 233520), and added to each well of the compound containing plates (384-well plates, NBS; Corning CLS3640), giving a final cell density of 2.5 × 10^3 CFU/mL and a total volume of 50 μL. Plates were covered and incubated at 35 °C for 36 h without shaking. […] MIC […] Reference Method for Broth Dilution Antifungal Susceptibility Testing of Yeasts. […] Fluconazole (Sigma F8929) was used as internal control on each plate for all strains. All compounds were tested as two technical replicates in two to four independent biological assays, n = 4–8 final data.

[9] = system: Candida auris CBS12373 KCTC 17810; test: Antifungal MIC assay, extended panel; assay type: cell-based; settings: extended panel; for MIC: second batch, ≥80 or ≥50% inhibition, read-out: MIC* Candida auris CBS12373
Protocol: as §3

[10] = system: Candida glabrata ATCC 90030 NCCLS 84; test: Antifungal MIC assay, extended panel; assay type: cell-based; settings: extended panel, second batch; ≥80 or ≥50% inhibition
Protocol: (§4) For the fungal assays, both fungi (yeast) strains were cultured for 3 days on Yeast Extract-Peptone Dextrose (YPD; Becton Dickinson 242720) agar at 30 °C. A yeast suspension of 1 × 10^6 to 5 × 10^6 CFU/mL (as determined by OD530) was prepared from five colonies from the agar plates, subsequently diluted with Yeast Nitrogen Base media (YNB; Becton Dickinson 233520), and added to each well of the compound containing plates (384-well plates, NBS; Corning CLS3640), giving a final cell density of 2.5 × 10^3 CFU/mL and a total volume of 50 μL. Plates were covered and incubated at 35 °C for 36 h without shaking. […] MIC values were recorded as the lowest concentration at which the growth was inhibited by ≥80%, equivalent to ″optically clear-to-slightly hazy″ or MIC score of 0–1 as per CLSI guidelines M27 Reference Method for Broth Dilution Antifungal Susceptibility Testing of Yeasts. […] Fluconazole (Sigma F8929) was used as internal control on each plate for all strains. All compounds were tested as two technical replicates in two to four independent biological assays, n = 4–8 final data.

[11] = system: Candida tropicalis ATCC 750; test: Antifungal MIC assay, extended panel; assay type: cell-based; settings: extended panel, second batch; ≥80 or ≥50% inhibition
Protocol: as §4

[12] = system: Cryptococcus deuterogattii ATCC 32609 VGII; test: Antifungal MIC assay, extended panel; assay type: cell-based; settings: extended panel, second batch; ≥80 or ≥50% inhibition
Protocol: as §4

[13] = system: Cryptococcus deuterogattii CBS7750 VGII; Serotype B; test: Antifungal MIC assay, extended panel; assay type: cell-based; settings: extended panel, second batch; ≥80 or ≥50% inhibition
Protocol: as §4

[14] = system: Candida glabrata ATCC 90030 NCCLS 84; test: Antifungal MIC assay, extended panel; assay type: cell-based; settings: extended panel; 50% inhibition, MIC score 2
[15] = system: Candida tropicalis ATCC 750; test: Antifungal MIC assay, extended panel; assay type: cell-based; settings: extended panel; 50% inhibition, MIC score 2
[16] = system: Cryptococcus deuterogattii CBS7750 VGII; Serotype B; test: Antifungal MIC assay, extended panel; assay type: cell-based; settings: extended panel; 50% inhibition, MIC score 2
[17] = system: Cryptococcus deuterogattii ATCC 32609 VGII; test: Antifungal MIC assay, extended panel; assay type: cell-based; settings: extended panel; 50% inhibition, MIC score 2
[18] = extended panel, second batch, ≥80 or ≥50% inhibition
[19] = extended panel, 50% inhibition, MIC score 2
[20] = initial CO-ADD screening, 1 h, 10% hemolysis
[21] = ranges obtained upon retesting, new batch

SMILES	MIC Ab [1]	MIC Ec [2]	MIC Pa [3]	MIC MRSA (Sa) [4]	MIC Ca [5]	MIC Cn [6]	RBC HC10 (human red blood cells; [20])	RBC HC10 (human red blood cells; [21])	MIC [9]	MIC [10]	MIC Cryptococcus deuterogattii ATCC 32609 [12]	MIC [13]	also measured
Cc1c(C)c(-c2ccc(-c3ccccc3)cc2)[c-](C)c1C.Cc1ccccc1NC1=[NH+][Ir]([Cl])[NH]C(NS(=O)(=O)c2ccc([N+](=O)[O-])cc2)=N1 [Ir2]	>32 µg/mL	>32 µg/mL	>32 µg/mL	1 µg/mL	2 µg/mL	2 µg/mL	>32 µg/mL	2 to 76 µM	0.024 µM	0.098 µM	0.098 to 0.195 µM	0.024 µM	MIC Candida albicans ATCC 90028 [5, 18]: 0.049 to 0.098 µM; MIC50 Candida albicans ATCC 90028 [5, 19]: 0.049 to 0.098 µM; MIC Cryptococcus neoformans ATCC 208821 [6, 18]: 0.024 to 0.049 µM; MIC50 Cryptococcus neoformans ATCC 208821 [6, 19]: 0.024 to 0.098 µM; HEK CC50 ([7]; initial CO-ADD screening, 20 h): >32 µg/mL; MIC Candida auris CBS10913 ([8]; second batch, ≥80 or ≥50% inhibition): 0.049 to 0.098 µM; MIC50 Candida auris CBS10913 ([8]; 50% inhibition, MIC score 2): 0.049 to 0.098 µM; MIC50 Candida auris CBS12373 ([9]; 50% inhibition, MIC score 2): 0.024 µM; MIC Candida tropicalis ATCC 750 [11]: 0.098 to 0.195 µM; MIC50 Candida glabrata ATCC 90030 [14]: 0.098 to 0.195 µM; MIC50 Candida tropicalis ATCC 750 [15]: 0.098 to 0.195 µM; MIC50 Cryptococcus deuterogattii CBS7750 [16]: 0.012 to 0.024 µM; MIC50 Cryptococcus deuterogattii ATCC 32609 [17]: 0.098 to 0.195 µM
C1=CCCC=CCC1.[Cl][Pd][Cl] [Pd1]	>20 µM	>20 µM	>20 µM	>20 µM	1.25 µM	0.63 µM	>20 µM	10 µM	≤0.78 µM	3.12 µM	1.56 to 3.12 µM	≤0.78 µM	MIC ([5]; extended panel, second batch, ≥80 or ≥50% inhibition, read-out: MIC* Candida albicans ATCC 90028): 3.12 µM; MIC ([6]; extended panel, second batch, ≥80 or ≥50% inhibition, read-out: MIC* Cryptococcus neoformans ATCC 208821): ≤0.78 µM; CC50 ([7]; read-out: HEK293 CC50, ranges obtained upon retesting, new batch): > 100 µM; CC50 ([7]; read-out: HEK CC50, initial CO-ADD screening, 20 h): > 20 µM; cytotoxicity: none up to stated concentration ([7]; retest): > 100 µM; MIC ([8]; second batch, ≥80 or ≥50% inhibition, read-out: MIC* Candida auris CBS10913): ≤0.78 µM; MIC [11]: 6.25 µM
